# Laboratory results published in patent publication US20250353873A1, “COMPOUNDS AND METHODS FOR MODULATING APOE EXPRESSION” (Ionis Pharmaceuticals, Inc., priority 2024, published 2025).
# Strand notation (5' to 3'): a small letter for the sugar, then the base; units joined by * are phosphorothioate-linked, units joined directly phosphodiester-linked; [ ] holds rarer units or linkages, { } end groups; capitals alone tell only the bases. [ms] = mesyl phosphoramidate linkage; e = 2'-O-(2-methoxyethyl) (MOE); [5mC] = 5-methylcytosine; d = 2'-deoxy (DNA)
# Test system: human APOE RNA
# Assay: Dose-dependent inhibition of human APOE RNA in HepG2 cells, electroporation, 24 hours (Example 6)
# Format: cell-based
# Outline: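 HepG2 cells, 50,000 per well, electroporated with various oligonucleotide concentrations. APOE RNA measured with primer probe set RTS3073, normalized to GAPDH (RTS104), expressed as % of untreated control; IC50 then calculated.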
substance,measurement,setting,value
"1693105: 6-10-4 MOE gapmer CTTGGTGAATCTTTATTAAA, linkages sosssszzzssssszssss (e[5mC]*eTeT*eG*eG*eT*dG[ms]dA[ms]dA[ms]dT*d[5mC]*dT*dT*dT*dA[ms]dT*eT*eA*eA*eA) [compound 1693105]",IC50,,1.1 µM
same,APOE RNA (% UTC),5 nM,117 % UTC
same,APOE RNA (% UTC),13 nM,104 % UTC
same,APOE RNA (% UTC),33 nM,118 % UTC
same,APOE RNA (% UTC),82 nM,91 % UTC
same,APOE RNA (% UTC),205 nM,101 % UTC
same,APOE RNA (% UTC),512 nM,59 % UTC
same,APOE RNA (% UTC),"1,280 nM",43 % UTC
same,APOE RNA (% UTC),"3,200 nM",23 % UTC
same,APOE RNA (% UTC),"8,000 nM",21 % UTC
same,APOE RNA (% UTC),"20,000 nM",6 % UTC
